Columns and labels:
Type in all cases: in vivo
[1] = system: GlenGlo Peach trees; experiment: Peach tree thinning trial, foliage quality rating; settings: for Foliage Rating: 1 is the best and 3 is the worst
Experimental: (§1) Thinning trials were conducted in Coloma, Mich. in May 2018. Specifically, 1-amino-1-cyclopropanecarboxylic acid was prepared at 300 and 600 ppm ACC solutions with 0.05% 2-butoxyethanol, poloxalene, monopropylene glycol as a surfactant. These solutions were applied as a foliar spray to GlenGlo Peach trees at pink bud stage, full bloom and after petal fall. Three one year-old shoots were flagged for each treatment on eight replicate trees. Fruit and defoliation were evaluated four weeks after bloom applications and two weeks after the post-petal fall application. […] Thinning activity is expressed as fruit set (the number of large fruit per 100 flowers).

[2] = system: peach trees; experiment: Thinning trials Greece, Italy and Spain 2020, fruit set, peach sites; settings: pink bud stage
Experimental: (§2) Thinning trials were conducted Greece, Italy and Spain in 2020. Specifically, 1-amino-1-cyclopropanecarboxylic acid was prepared at 200, 300, 400, 500, 800 and 1,000 ppm ACC solutions. These solutions were applied as a foliar spray to peach trees (i.e. Spain North, Spain South #1 and Greece #2) and nectarine trees (i.e. Spain South #1 and Greece #1) at pink bud stage. […] Thinning activity is expressed as fruit set (the number of large fruit per 100 flowers).

[3] = system: peach and nectarine trees; experiment: Thinning trials Greece, Italy and Spain 2020, fruit set, Italy site and average of all sites; settings: pink bud stage; for % Fruit Set (Avg): average of sites; for reduced fruit set on average over control: vs untreated control
Experimental: as §2

[4] = system: GlenGlo Peach trees; experiment: Peach tree thinning trial, fruit set (Coloma, Mich., 2018); settings: for reduced fruit set over control: pink bud stage, vs surfactant only control
Experimental: as §1

[5] = system: nectarine trees; experiment: Thinning trials Greece, Italy and Spain 2020, fruit set, nectarine sites; settings: pink bud stage
Experimental: Thinning trials were conducted Greece, Italy and Spain in 2020. Specifically, 1-amino-1-cyclopropanecarboxylic acid was prepared at 200, 300, 400, 500, 800 and 1,000 ppm ACC solutions. These solutions were applied as a foliar spray to peach trees (i.e. […]

[6] = system: plum trees (Candy Stripe and Black Majesty); experiment: Plum tree thinning trial, fruit set (Chile, 2020); settings: for % Fruit Set 'Black Majesty': Black Majesty plum; for % Fruit set 'Candy Stripe': Candy Stripe plum; for % Fruit Set (Avg): average of two varieties; for reduced fruit set on average over control: white bud stage, vs untreated control
Experimental: Thinning trials were conducted Chile in 2020. Specifically, 1-amino-1-cyclopropanecarboxylic acid was prepared at 300 and 450 ppm ACC solutions. These solutions were applied as a foliar spray to two separate varieties of plum trees (i.e. Candy Stripe and Black Majesty) at the white bud stage, the full bloom stage or the petal fall stage. […] Thinning activity is expressed as fruit set (the number of large fruit per 100 flowers).

Compound: NC1(C(=O)O)CC1 [ACC, 1-amino-1-cyclopropanecarboxylic acid]
- Foliage Rating ([1]; 300 ppm ACC, After Petal Fall): 1.86
- Foliage Rating ([1]; 300 ppm ACC, Full Bloom): 2.10
- Foliage Rating ([1]; 300 ppm ACC, Pink Bud Stage): 1.52
- Foliage Rating ([1]; 600 ppm ACC, After Petal Fall): 1.90
- Foliage Rating ([1]; 600 ppm ACC, Full Bloom): 2.67
- Foliage Rating ([1]; 600 ppm ACC, Pink Bud Stage): 1.95
- foliage quality ([1]; application at the pink bud stage): did not significantly reduce foliage quality
- % Fruit Set (Greece #2) ([2]; 200 ppm ACC): 33%
- % Fruit Set (Spain North) ([2]; 200 ppm ACC): 50%
- % Fruit Set (Spain South#1) ([2]; 200 ppm ACC): 55%
- % Fruit Set (Greece #2) ([2]; 300 ppm ACC): 32%
- % Fruit Set (Spain North) ([2]; 300 ppm ACC): 44%
- % Fruit Set (Spain South#1) ([2]; 300 ppm ACC): 46%
- % Fruit Set (Greece #2) ([2]; 400 ppm ACC): 28%
- % Fruit Set (Spain North) ([2]; 400 ppm ACC): 33%
- % Fruit Set (Spain South#1) ([2]; 400 ppm ACC): 39%
- % Fruit Set (Greece #2) ([2]; 500 ppm ACC): 28%
- % Fruit Set (Spain North) ([2]; 500 ppm ACC): 25%
- % Fruit Set (Spain South#1) ([2]; 500 ppm ACC): 42%
- % Fruit Set (Greece #2) ([2]; 800 ppm ACC): 23%
- % Fruit Set (Spain North) ([2]; 800 ppm ACC): 7%
- % Fruit Set (Spain South#1) ([2]; 800 ppm ACC): 31%
- % Fruit Set (Greece #2) ([2]; 1,000 ppm ACC): 21%
- % Fruit Set (Spain North) ([2]; 1,000 ppm ACC): 7%
- % Fruit Set (Spain South#1) ([2]; 1,000 ppm ACC): 32%
- % Fruit Set (Italy) ([3]; 200 ppm ACC): 33%
- % Fruit Set (Avg) ([3]; 200 ppm ACC): 44%
- reduced fruit set on average over control ([3]; 200 ppm): 18%
- % Fruit Set (Italy) ([3]; 300 ppm ACC): 32%
- % Fruit Set (Avg) ([3]; 300 ppm ACC): 40%
- reduced fruit set on average over control ([3]; 300 ppm): 30%
- % Fruit Set (Italy) ([3]; 400 ppm ACC): 34%
- % Fruit Set (Avg) ([3]; 400 ppm ACC): 35%
- reduced fruit set on average over control ([3]; 400 ppm): 49%
- % Fruit Set (Italy) ([3]; 500 ppm ACC): 32%
- % Fruit Set (Avg) ([3]; 500 ppm ACC): 33%
- reduced fruit set on average over control ([3]; 500 ppm): 58%
- % Fruit Set (Italy) ([3]; 800 ppm ACC): 32%
- % Fruit Set (Avg) ([3]; 800 ppm ACC): 25%
- reduced fruit set on average over control ([3]; 800 ppm): 108%
- % Fruit Set (Italy) ([3]; 1,000 ppm ACC): 31%
- % Fruit Set (Avg) ([3]; 1,000 ppm ACC): 24%
- reduced fruit set on average over control ([3]; 1,000 ppm): 117%
- % Fruit Set ([4]; 300 ppm ACC foliar spray, After Petal Fall): 57%
- % Fruit Set ([4]; 300 ppm ACC foliar spray, Full Bloom): 10%
- % Fruit Set ([4]; 300 ppm ACC foliar spray, Pink Bud Stage): 10%
- reduced fruit set over control ([4]; 300 ppm): 310%
- % Fruit Set ([4]; 600 ppm ACC foliar spray, After Petal Fall): 45%
- % Fruit Set ([4]; 600 ppm ACC foliar spray, Full Bloom): 1%
- % Fruit Set ([4]; 600 ppm ACC foliar spray, Pink Bud Stage): 6%
- reduced fruit set over control ([4]; 600 ppm): 583%
- thinning activity ([4]; application after petal fall): did not provide effective thinning activity
- % Fruit Set (Greece #1) ([5]; 200 ppm ACC): 37%
- % Fruit Set (Spain South #2) ([5]; 200 ppm ACC): 55%
- % Fruit Set (Greece #1) ([5]; 300 ppm ACC): 32%
- % Fruit Set (Spain South #2) ([5]; 300 ppm ACC): 55%
- % Fruit Set (Greece #1) ([5]; 400 ppm ACC): 28%
- % Fruit Set (Spain South #2) ([5]; 400 ppm ACC): 48%
- % Fruit Set (Greece #1) ([5]; 500 ppm ACC): 25%
- % Fruit Set (Spain South #2) ([5]; 500 ppm ACC): 45%
- % Fruit Set (Greece #1) ([5]; 800 ppm ACC): 19%
- % Fruit Set (Spain South #2) ([5]; 800 ppm ACC): 37%
- % Fruit Set (Greece #1) ([5]; 1,000 ppm ACC): 16%
- % Fruit Set (Spain South #2) ([5]; 1,000 ppm ACC): 37%
- % Fruit Set 'Black Majesty' ([6]; 300 ppm ACC, Full Bloom Stage): 9%
- % Fruit set 'Candy Stripe' ([6]; 300 ppm ACC, Full Bloom Stage): 4%
- % Fruit Set (Avg) ([6]; 300 ppm ACC, Full Bloom Stage): 6.5%
- % Fruit Set 'Black Majesty' ([6]; 300 ppm ACC, Petal Fall Stage): 8%
- % Fruit set 'Candy Stripe' ([6]; 300 ppm ACC, Petal Fall Stage): 5%
- % Fruit Set (Avg) ([6]; 300 ppm ACC, Petal Fall Stage): 6.5%
- % Fruit Set 'Black Majesty' ([6]; 300 ppm ACC, White Bud Stage): 4%
- % Fruit set 'Candy Stripe' ([6]; 300 ppm ACC, White Bud Stage): 1%
- % Fruit Set (Avg) ([6]; 300 ppm ACC, White Bud Stage): 2.5%
- reduced fruit set on average over control ([6]; 300 ppm): 21.5%
- % Fruit Set 'Black Majesty' ([6]; 450 ppm ACC, Full Bloom Stage): 9%
- % Fruit set 'Candy Stripe' ([6]; 450 ppm ACC, Full Bloom Stage): 4%
- % Fruit Set (Avg) ([6]; 450 ppm ACC, Full Bloom Stage): 6.5%
- % Fruit Set 'Black Majesty' ([6]; 450 ppm ACC, Petal Fall Stage): 8%
- % Fruit set 'Candy Stripe' ([6]; 450 ppm ACC, Petal Fall Stage): 3%
- % Fruit Set (Avg) ([6]; 450 ppm ACC, Petal Fall Stage): 5.5%
- % Fruit Set 'Black Majesty' ([6]; 450 ppm ACC, White Bud Stage): 5%
- % Fruit set 'Candy Stripe' ([6]; 450 ppm ACC, White Bud Stage): 1%
- % Fruit Set (Avg) ([6]; 450 ppm ACC, White Bud Stage): 3%
- reduced fruit set on average over control ([6]; 450 ppm): 21%
